The values below come from EP0723972A1, “Lactylamines and their pharmaceutical application” (STEPAN EUROPE, priority 1995, dated 1996).

Holding throughout (format): cell-based
One data set has as its system Aspergillus fumigatus. Put plainly: Anti-Aspergillus fumigatus in vitro growth inhibition (glucose consumption). Conditions: for IC50: Aspergillus fumigatus. From the text: Différents composés B1 ont été testés du point de vue de leurs propriétés anti-Aspergillus fumigatus, dans un essai in vitro standardisé, complètement décrit dans la publication (7) dont le contenu est incorporé, par référence, à la présente description.
Dans cet essai, la croissance dudit champignon est indiquée par la consommation de glucose qui constitue la seule source de carbone métabolisable, et on mesure la concentration en composé testé nécessaire pour inhiber 50% (IC50), et 90% (IC90) de la croissance du champignon. Deux composés témoin sont utilisés, l'Itraconazole et l'Amphotéricine B, dont les propriétés anti-Aspergillus fumigatus sont connues et qui servent dans cet essai de référence.

The test system of a further data set is VIH (souche BRU). Put plainly: Anti-HIV in vitro test: syncytia formation in HIV-infected CEM cells. To be noted: 96 h. The text has this:
Les composés A (A1, A2) et B (B1, B2) sont testés du point de vue de leurs propriétés anti-VIH selon un protocole d'essai in vitro standardisé et complètement décrit dans les publications (5, 6), dont le contenu est incorporé par référence, à la présente description.
La multiplication du VIH (souche BRU) dans les cellules CEM est évaluée par le nombre de syncytia formés après 4 jours d'infection, résultant de l'interaction entre la glycoprotéine gp120 exprimée par les cellules (BRU) infectées par le VIH, et les lymphocytes T4 (CEM).
Les composés testés sont ajoutés après l'adsorption du virus dans le milieu de culture aux concentrations finales 10^-3M, 10^-4M, 10^-5M, 10^-6M et 10^-7M.
Les résultats sont exprimés par la concentration la plus faible de composés qui diminue la formation des syncytia d'au moins 50%. Cette concentration est appelée EC50. Elle doit être la plus basse possible.

For the next data set, the system named is CEM non infectées. The data set is described as follows: Toxicity on uninfected CEM cells, colorimetric formazan (MTT) reduction. To be noted: lowest concentration inhibiting formazan formation by at least 50%, four days of incubation, macrophage CEM-SS. How it is done:
On détermine aussi la toxicité des composés testés. L'effet toxique sur les CEM non infectées est apprécié par une réaction colorimétrique basée sur la capacité des cellules vivantes à réduire le bromure de 3-(4,5-diméthylthiazol-2-yl)-2,5-diphényltétrazolium en formazan après quatre jours d'incubation en présence de différentes concentrations des composés. Les résultats sont exprimés par la concentration la plus faible de composés qui provoque une inhibition d'au moins 50% de la formation de formazan. Cette concentration est appelée CI50.

The mark [1] stands for this setting: anti-VIH sur macrophage CEM-SS, lowest concentration reducing syncytia formation by at least 50%, 4 days of infection, read-out: EC50.

“And” between values parts separate entries of the source, which are not always exact repeats. Identical values can stand only once. Like-named read-outs stand apart in the source and are kept apart here. Bounds are passed on as bounds.

With `C[C@@H]1[C@H](O)[C@@H](C)/C=C/C=C/C=C/C=C/C=C/C=C/C=C/[C@H](O[C@@H]2O[C@H](C)[C@@H](O)[C@H](N)[C@@H]2O)C[C@@H]2O[C@](O)(C[C@@H](O)C[C@@H](O)[C@H](O)CC[C@@H](O)C[C@@H](O)CC(=O)O[C@H]1C)C[C@H](O)[C@H]2C(=O)O` [Amphotéricine B, reference compound], the IC50 with Aspergillus fumigatus (read-out: CI50) was 0.02 µg/mL and 20 nM.
The same measure, in the same setting: the result for `CCCCCCCCCCCCCC(=O)N(CCCCCCCCC)C[C@H](O)[C@@H](O)[C@H](O[C@@H]1O[C@H](CO)[C@H](O)[C@H](O)[C@H]1O)[C@H](O)CO` [B1(9, 13)] reads 5 µg/mL and 7.4 µM.
As to `CCCCCCCCCCCCCCCC(=O)N(CCCCCCCCC)C[C@H](O)[C@@H](O)[C@H](O[C@@H]1O[C@H](CO)[C@H](O)[C@H](O)[C@H]1O)[C@H](O)CO` [B1(9, 15)], the IC50 in the data set with Aspergillus fumigatus (read-out: CI50) is 1.6 µg/mL and 2.3 µM. Moreover, the EC50 in the data set on VIH (souche BRU) (setting [1]) worked out at 10 µM. For the same compound, the CI50 with CEM non infectées is on record as > 100 µM.
Consider `CCCCCCCCCCCCCCCCCC(=O)N(CCCCCCCCC)C[C@H](O)[C@@H](O)[C@H](O[C@@H]1O[C@H](CO)[C@H](O)[C@H](O)[C@H]1O)[C@H](O)CO` [B1(9, 17)], for which the IC50 in the data set on Aspergillus fumigatus (read-out: CI50) is 0.5 µg/mL and 600 nM. In addition, in the data set on Aspergillus fumigatus (result in words, compared with the reference compound), the “activité anti-Aspergillus fumigatus” value was “proche de celle de l'Amphotéricine B”.
With `CCC(C)n1ncn(-c2ccc(N3CCN(c4ccc(OCC5COC(Cn6cncn6)(c6ccc(Cl)cc6Cl)O5)cc4)CC3)cc2)c1=O` (centres unmarked) [Itraconazole, reference compound], the IC50 in the data set with Aspergillus fumigatus (concentration inhibiting 50% of fungal growth, read-out: CI50 (the source's name)) was 0.003 µg/mL and 4 nM.
Regarding `CCCCCCCCCCCCNC[C@H](O)[C@@H](O)[C@H](O[C@@H]1O[C@H](CO)[C@H](O)[C@H](O)[C@H]1O)[C@H](O)CO` [N-dodécylaminodésoxyl-1-lactitol], the IC50 with Aspergillus fumigatus (read-out: CI50) was > 100 µg/mL and 195 µM. Besides, it took 1000 µM to reach a half-maximal effect with VIH (souche BRU) (CEM-SS) (EC50). In the data set with CEM non infectées, the CI50 was 7000 µM.
`CCCCCCCCCCCCCCCCNC[C@H](O)[C@@H](O)[C@H](O[C@@H]1O[C@H](CO)[C@H](O)[C@H](O)[C@H]1O)[C@H](O)CO` [N-hexadécylaminodésoxy-l-lactitol]: in the data set with Aspergillus fumigatus (read-out: CI50), the IC50 was 2.2 µg/mL and 3.8 µM. Also, in the data set on VIH (souche BRU) (CEM-SS), a half-maximal effect (EC50) was put at 50 µM. In the data set on CEM non infectées, this compound showed a CI50 of 70 µM.
For the compound `CCCCCCCCCNC[C@H](O)[C@@H](O)[C@H](O[C@@H]1O[C@H](CO)[C@H](O)[C@H](O)[C@H]1O)[C@H](O)CO` [N-nonylaminodésoxy-1-lactitol], the IC50 in the data set on Aspergillus fumigatus (read-out: CI50) was > 100 µg/mL and > 220 µM. Further, the EC50 in the data set with VIH (souche BRU) (setting [1]) was determined as 1 µM. This compound displayed a CI50 in the data set on CEM non infectées of 40 µM.
As to `CCCCCCCCCCCCCCNC[C@H](O)[C@@H](O)[C@H](O[C@@H]1O[C@H](CO)[C@H](O)[C@H](O)[C@H]1O)[C@H](O)CO` [N-tétradécylaminodésoxy-l-lactitol], the IC50 in the data set on Aspergillus fumigatus (read-out: CI50) was 15.2 µg/mL and 28.1 µM. In the data set on VIH (souche BRU) (CEM-SS), the EC50 was 50 µM. This compound also returned a CI50 with CEM non infectées of 70 µM.

By EC50 is commonly meant the concentration giving half of the maximal effect.
